Entries after “also recorded” stand apart in the source; their conditions may differ.
Tests used:
oxidized PTP1B = target: T1, oxidized PTP1B (Homo sapiens, UniProt P18031); assay: Adduct formation with oxidized PTP1B, mass spectroscopy analysis; type: binding; conditions: adduct seen by mass spectroscopy analysis;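 note: detection of covalent adducts formed between each compound and oxidized PTP1B, assessed by mass spectroscopy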
T1 sequence (P18031 1-435): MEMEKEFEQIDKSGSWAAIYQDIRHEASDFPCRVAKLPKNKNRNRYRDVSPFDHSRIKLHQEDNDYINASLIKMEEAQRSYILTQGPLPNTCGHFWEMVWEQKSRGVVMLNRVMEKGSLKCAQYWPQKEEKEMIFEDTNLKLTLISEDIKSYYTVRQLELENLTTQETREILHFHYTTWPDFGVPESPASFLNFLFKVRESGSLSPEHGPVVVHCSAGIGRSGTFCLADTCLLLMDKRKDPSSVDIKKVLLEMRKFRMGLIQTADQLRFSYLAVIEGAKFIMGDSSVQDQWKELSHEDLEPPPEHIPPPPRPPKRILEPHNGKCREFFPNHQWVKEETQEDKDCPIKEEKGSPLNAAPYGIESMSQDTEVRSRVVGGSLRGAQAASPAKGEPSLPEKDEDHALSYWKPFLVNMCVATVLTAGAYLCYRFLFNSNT
From the text: In further embodiments of the method, a fragment of the target protein may be used instead of the entire target protein. Certain embodiments may be directed to the binding between the compound and the target protein in the samples which may form a covalent adduct between the compound and the target protein, and the quantity of covalent adducts may be measured and compared in the samples. Any suitable assay for measuring the quantity of binding, or quantity of covalent adducts, in the two samples may be used with this method. For example, binding between the compound and the target protein may be detected using mass spectroscopy, fluorescence assays, and/or chromatography techniques. The chromatography techniques may include, but are not limited to, high-performance liquid chromatography. Further, binding between the compound and target protein may be detected using a combination of assays, for example, a combination of liquid chromatography and mass spectroscopy. The method may also be carried out in live and intact cells to determine a compound's reactivity with oxidized forms of the target protein in live cells. In certain embodiments, the potency of the compound is determined based on the degree of reduction of the quantity of adducts formed in the first sample compared with the quantity of adducts formed in the control sample, in a proportion to the quantity of compound used. In further embodiments, the potency of the compound is determined by calculating a ratio of the number of adducts formed in the first sample compared to the number of adducts formed in the control sample. A ratio of one compound can be compared directly to a ratio for another compound.
The degree of potency of the compound may be based on the degree of reduction of the quantity of adducts formed in a first sample compared with the quantity of adducts formed in the control sample in proportion to the quantity of compound used.

GAPDH = GAPDH (Homo sapiens, UniProt P04406); assay: In vitro probe labeling of oxidized recombinant protein, click chemistry and Western blot; type: binding; conditions: H2O2 1.5 eq, probe 1 hour
GAPDH, sequence (P04406 whole entry, species assumed): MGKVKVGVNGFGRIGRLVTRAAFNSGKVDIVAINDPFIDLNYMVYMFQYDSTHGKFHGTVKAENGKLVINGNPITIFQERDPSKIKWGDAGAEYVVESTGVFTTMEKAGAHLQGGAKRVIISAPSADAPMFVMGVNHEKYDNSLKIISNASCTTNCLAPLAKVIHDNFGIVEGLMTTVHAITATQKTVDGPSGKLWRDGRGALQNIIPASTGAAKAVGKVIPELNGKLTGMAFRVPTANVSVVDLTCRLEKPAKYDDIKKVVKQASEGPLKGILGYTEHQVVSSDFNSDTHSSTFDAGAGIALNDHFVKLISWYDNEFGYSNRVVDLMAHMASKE
Method: (§1) Cell labeling western blot assays were performed using WT PJ3H-PTP1B purified from E. coli that was cloned into a mammalian expression plasmid. Recombinant PTP1B was expressed and purified from BL21AI cells. Recombinant proteins were labeled with respective equivalences of hydrogen peroxide (PTP1B, 10 eq; Gpx3 & GAPDH, 1.5 eq) in the presence of the indicated concentrations of sulfenic acid probes for 1 hour at room temperature with constant rocking Excess probe was removed by size-exclusion chromatography. Probe modified proteins were functionalized with a biotin reporter tag through the bioorthogonal Huisgen [3+2] Cycloaddition (“click chemistry”) then analyzed by Western blot.

GPX3 = assay: as above; type: binding; conditions: H2O2 1.5 eq, probe 1 hour
Method: as §1

PTP1B = target: T2, PTP1B (Homo sapiens, UniProt P18031); assay: PTP assay, 4-MUP fluorescence; type: biochemical; conditions: FIG. 20 fluorescence assay, percent activity
T2 sequence (P18031 1-435): T1 sequence (P18031 1-435)
Method: as §1
The PTP assay included PTP that was prepared up to 100 nM in 32 mM HEPES, pH 7.2, 5 mM NaCl, 2.5 mM EDTA, 0.83% glycerol, 0.02% Triton X-100, and 0.002% Brij-35. The protein was dispensed to a black ckear-bottomed 96-well microplate followed by the addition of redox-based probes or DMSO and allowed to incubate for 15 minutes at 25° C. The assay was initiated with the addition of 4-methylumbelliferyl phosphate (4-MUP), and the formation of fluorescent product was measured with an excitation wavelength of 358 nm and emission wavelength of 449 nm.

[1] = Microsome stability, mouse liver microsomes; type: in vitro ADME; conditions: read-out: Microsome Stability Mouse t1/2
[2] = Plasma stability in mice (20 mg/kg IP); type: in vivo; conditions: mouse, intraperitoneal
Method: Plasma stability of drug candidates may be essential for maintaining acceptable drug concentration and half-life in order to achieve desirable pharmacological effects. Compounds 1a to 5a were evaluated for plasma stability in mice with PD168393 as the reference. […] At a time point of 24 hours, Compounds 1a-5a and PD168393 were almost completely degraded.

in vitro = conditions: human, microsomes
A431 and HeLa cells = conditions: compared to DAz-2, identical conditions; cited from earlier work
[3] = Microsome stability, human liver microsomes
[4] = Dipeptide sulfenic acid model, reaction rate

Row | REACTIVITY WITH OXIDIZED PTP1B (oxidized PTP1B) | Compound | other results
1 | No adduct | O=C1CC(=O)C(c2ccccc2)C1 (stereo not drawn) | –
2 | Adduct | O=C1CC(=O)N(c2ccccc2)C1 | –
3 | Adduct | COc1ccc(-c2ccccc2)cc1N1CC(=O)CC1=O | –
4 | Adduct | O=C1CC(=O)N(c2cc(-c3ccccc3)ccc2O)C1 | –
5 | No adduct | O=C1CC(=O)C(Cc2ccccc2)C1 (stereo not drawn) | –
6 | Adduct | O=C1CC(=O)N(Cc2ccccc2)C1 | –
7 | Adduct | COc1ccc(-c2ccccc2)cc1CN1CC(=O)CC1=O | –
8 | Adduct | O=C1CC(=O)N(Cc2cc(-c3ccccc3)ccc2O)C1 | –
9 | No adduct | O=C1CC(c2ccccc2)S(=O)(=O)C1 (stereo not drawn) | –
10 | No adduct | O=C1CN(c2ccccc2)S(=O)(=O)C1 | –
11 | No adduct | O=C1CC(Cc2ccccc2)S(=O)(=O)C1 (stereo not drawn) | –
12 | No adduct | O=C1CN(Cc2ccccc2)S(=O)(=O)C1 | –
13 | No adduct | O=C1CC(=O)/C(=C\c2ccccc2)C1 | –
14 | No adduct | O=C1C/C(=C/c2ccccc2)S(=O)(=O)C1 | –
15 | No adduct | COc1ccc(-c2ccccc2)cc1N1CC(=O)CS1(=O)=O | –
16 | Adduct | O=C1CC(=O)c2ccccc21 | –
17 | Adduct | O=C1CS(=O)(=O)c2ccccc21 | –

Row | REACTIVITY WITH OXIDIZED PTP1B (oxidized PTP1B) | Compound | other results
18 | Adduct | O=C1CS(=O)(=O)Cc2ccccc21 | –
19 | Adduct | CN1c2ccccc2C(=O)CS1(=O)=O | –
20 | No Adduct | O=C1CS(=O)(=O)N(Cc2ccccc2)c2ccccc21 | –
21 | No Adduct | O=C1CS(=O)(=O)c2ccccc2N1 | –
22 | No Adduct | CN1C(=O)CS(=O)(=O)c2ccccc21 | –
23 | No Adduct | O=C1CC(=O)c2ccccc2N1 | –
24 | No Adduct | CN1C(=O)CC(=O)c2ccccc21 | –
25 | No Adduct | O=C1CS(=O)(=O)Nc2ccccc21 | –
26 | Adduct | O=C1CCN(c2ccccc2)C(=O)C1 | –
27 | Adduct | O=C1CCN(Cc2ccccc2)C(=O)C1 | –
28 | – | C#CCCCNC(=O)C1CC(=O)CC(=O)C1 [Compound 1] | preferential detection of control protein GAPDH (GAPDH): no preferential detection; preferential detection of control protein GPX3 (GPX3): no preferential detection
29 | – | C#CCCCNC(=O)c1ccc(-c2ccc(NC(=O)C3CC(=O)CC(=O)C3)cc2)cc1 [Compound 3] | IC50 (PTP1B): ~250 µM
30 | – | CC(=O)CC(=O)Nc1ccc2ncnc(Nc3cccc(Br)c3)c2c1 [Compound 3a] | half-life [1]: 4 min; concentration at 1 h [2]: 29100 nM; concentration at 4 h [2]: 1100 nM; concentration at 8 h [2]: 100 nM; concentration at 24 h [2]: < 25 nM; half-life (in vitro): 17 min; microsomal CLint (in vitro): 39.7 µL/min/mg
31 | – | C#CCCCC1CCC(=O)CC1=O (stereo not drawn) [DYn-2] | total signal and signal ratio of cell labeling (A431 and HeLa cells): greater total signal and signal ratio compared to DAz-2
32 | – | C=CC(=O)Nc1ccc2ncnc(Nc3cccc(Br)c3)c2c1 [PD168393, reference compound] | half-life [1]: 3 min; concentration at 1 h [2]: 2000 nM; concentration at 4 h [2]: 40 nM; concentration at 8 h [2]: 50 nM; concentration at 24 h [2]: < 5 nM; half-life [3]: 10 min; microsomal CLint [3]: 72.4 µL/min/mg
33 | No adduct | CC1(C)CC(=O)CC(=O)C1 [drawing 1] | –

Row | Compound | REACTIVITY WITH OXIDIZED PTP1B (oxidized PTP1B) | other results
34 | CC1(C)CC(=O)CC(=O)C1 [dimedone, reference compound] | not reactive enough to trap the sulfenic acid in PTP1B as an observable adduct; also recorded: no adduct | rate constant for reaction in the dipeptide model (pseudo first-order) [4]: 1 min⁻¹
